One experiment addresses AKT-3 (Homo sapiens, UniProt Q9Y243). Nature of the experiment: AKT-3 inhibition assay (standard coupled enzyme assay). Format: biochemical. Conditions: 170 μM ATP, 200 μM peptide, 45 nM AKT, 30° C.
For a further experiment, the target named is T1, PDK-1 (Homo sapiens, UniProt O15530).
T1 sequence (O15530 1-556): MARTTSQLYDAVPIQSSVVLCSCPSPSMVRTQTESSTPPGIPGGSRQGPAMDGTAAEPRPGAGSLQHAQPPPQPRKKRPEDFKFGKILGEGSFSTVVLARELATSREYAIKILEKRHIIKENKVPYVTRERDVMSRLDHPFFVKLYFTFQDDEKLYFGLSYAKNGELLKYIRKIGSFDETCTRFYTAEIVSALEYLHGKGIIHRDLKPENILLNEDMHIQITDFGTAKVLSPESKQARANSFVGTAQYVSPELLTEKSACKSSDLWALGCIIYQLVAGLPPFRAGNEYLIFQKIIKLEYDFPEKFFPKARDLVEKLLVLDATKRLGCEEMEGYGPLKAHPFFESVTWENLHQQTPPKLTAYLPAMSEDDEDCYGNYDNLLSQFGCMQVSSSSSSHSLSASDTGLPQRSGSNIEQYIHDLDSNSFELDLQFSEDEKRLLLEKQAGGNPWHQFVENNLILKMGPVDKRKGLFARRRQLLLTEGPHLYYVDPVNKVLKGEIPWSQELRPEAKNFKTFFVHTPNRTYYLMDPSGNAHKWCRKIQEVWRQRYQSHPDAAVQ
Briefly: PDK-1 inhibition assay (radioactive-phosphate incorporation). Format: biochemical. Conditions: 40 μM ATP, 65 μM PDKtide, 25 nM PDK-1, 30° C.

pKi: −log10 of the molar value.

Chain of AKT-3 (Q9Y243 whole entry): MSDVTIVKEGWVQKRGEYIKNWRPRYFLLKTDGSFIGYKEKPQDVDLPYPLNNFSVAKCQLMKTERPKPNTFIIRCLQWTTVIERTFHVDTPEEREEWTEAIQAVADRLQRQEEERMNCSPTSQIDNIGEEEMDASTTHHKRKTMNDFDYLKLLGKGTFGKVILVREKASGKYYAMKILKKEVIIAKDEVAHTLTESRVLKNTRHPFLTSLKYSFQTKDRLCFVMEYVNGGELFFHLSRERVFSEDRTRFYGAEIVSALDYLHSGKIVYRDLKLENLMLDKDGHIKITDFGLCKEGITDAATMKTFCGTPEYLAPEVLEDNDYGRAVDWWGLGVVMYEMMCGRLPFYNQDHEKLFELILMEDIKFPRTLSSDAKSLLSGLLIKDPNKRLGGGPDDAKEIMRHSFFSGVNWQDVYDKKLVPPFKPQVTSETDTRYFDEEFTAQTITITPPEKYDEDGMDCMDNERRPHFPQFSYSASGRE
Protocol for AKT-3: Assays were carried out in a mixture of 100 mM HEPES 7.5, 10 mM MgCl2, 25 mM NaCl, 1 mM DTT and 3% DMSO. Final substrate concentrations in the assay were 170 μM ATP (Sigma Chemicals) and 200 μM peptide (RPRAATF, American Peptide, Sunnyvale, Calif.). Assays were carried out at 30° C. and 45 nM AKT. Final concentrations of the components of the coupled enzyme system were 2.5 mM phosphoenolpyruvate, 300 μM NADH, 30 μg/ML pyruvate kinase and 10 μg/ml lactate dehydrogenase.
An assay stock buffer solution was prepared containing all of the reagents listed above, with the exception of AKT, DTT, and the test compound of interest. 55 μl of the stock solution was placed in a 96 well plate followed by addition of 2 μl of 1 mM DMSO stock containing the test compound (final compound concentration 30 μM). The plate was pre-incubated for about 10 minutes at 30° C. and the reaction initiated by addition of 10 μl of enzyme (final concentration 45 nM) and 1 mM DTF. Rates of reaction were obtained using a Molecular Devices SpectraMax Plus plate reader over a 15 minute read time at 30° C.

Consider `O=C(Cc1ccc(Cl)c(Cl)c1)Nc1ccc2[nH]ncc2c1` [Compound I-16], for which the negative logarithm of the Ki (pKi) (commonly the Ki on a negative log10 scale, so that one unit is a factor of ten) on AKT-3 is 5.00 to 6.00; on PDK-1, less than 5.52.
The corresponding values for `Cc1cccn(C(CCN)C(=O)Nc2ccc3[nH]nc(C)c3c2)c1=O` (stereo not shown) [Compound I-137] are 5.00 to 6.00 and 5.52 to 6.00.
The corresponding values for `O=C(CCC(C(=O)O)c1ccccc1)Nc1ccc2[nH]ncc2c1` (stereo not shown) [Compound I-1014] are more than 6.00 and less than 5.52.
Regarding `COc1cccc(C(CCN)C(=O)Nc2ccc3[nH]nc(C)c3c2)c1` (stereo not shown) [Compound I-1018], the negative logarithm of the Ki (pKi) on AKT-3 is 5.00 to 6.00; at PDK-1 it was 5.52 to 6.00.
Consider `N#Cc1ccc(-c2n[nH]c3ccc(NC(=O)C(CCN)c4ccccc4)cc23)cc1` (stereo not shown) [Compound I-259], for which the pKi on AKT-3 was 5.00 to 6.00; at PDK-1 it was more than 6.00.
Take `CC(=O)c1ccc(-c2n[nH]c3ccc(NC(=O)C(CCN)c4ccccc4)cc23)cc1` (stereo not shown) [Compound I-250]: the pKi on AKT-3 is 5.00 to 6.00; on PDK-1 it was more than 6.00.
As to `NCC(C(=O)Nc1ccc2[nH]ncc2c1)c1ccc(Cl)cc1F` (stereo not shown) [Compound I-258], the pKi on AKT-3 is more than 6.00; on PDK-1, less than 5.52.
The corresponding values for `NCCC(C(=O)Nc1ccc2[nH]nc(NC(=O)Nc3cccc(Cl)c3)c2c1)c1ccc(Cl)c(Cl)c1` (stereo not shown) [Compound I-173] are more than 6.00 and more than 6.00.
Consider `CC(C)c1cccc(-c2n[nH]c3ccc(NC(=O)C(CCN)c4ccc(Cl)c(Cl)c4)cc23)c1` (stereo not shown) [Compound I-222], for which the pKi on AKT-3 was more than 6.00; at PDK-1, less than 5.52.
The corresponding values for `NCCC(C(=O)Nc1ccc2[nH]nc(NC(=O)COc3ccccc3)c2c1)c1ccccc1` (stereo not shown) [Compound I-1051] are 5.00 to 6.00 and less than 5.52.
For `NCC[C@H](C(=O)Nc1ccc2[nH]nc(NC(=O)c3cccs3)c2c1)c1c(F)ccc(Cl)c1F` [Compound I-1046], the negative-log Ki (pKi) at AKT-3 and on PDK-1 was more than 6.00 in each case.
For `NCC[C@H](C(=O)Nc1ccc2[nH]nc(-c3ccccc3)c2c1)c1c(F)ccc(Cl)c1F` [Compound I-1057], the pKi is 4.70 to 5.00 on AKT-3 and more than 6.00 on PDK-1.
Consider `Cc1cccc(Nc2n[nH]c3ccc(NC(=O)C(CCN)c4ccccc4)cc23)c1` (stereo not shown) [Compound I-1038], for which the values for the pKi on AKT-3 and at PDK-1 were 5.00 to 6.00 and 5.52 to 6.00, respectively.
On to `NCC[C@@H](C(=O)Nc1ccc2[nH]nc(NC(=O)c3cccs3)c2c1)c1ccccc1` [Compound I-1049], for which the pKi at AKT-3 and on PDK-1 was more than 6.00 each time.
Turning to `NCCC(C(=O)Nc1ccc2[nH]nc(NC(=O)C3CCCCC3)c2c1)c1ccccc1` (stereo not shown) [Compound I-1050], the pKi on AKT-3 is 5.00 to 6.00; at PDK-1 it was less than 5.52.
The corresponding values for `Cc1n[nH]c2ccc(NC(=O)C(CCN)c3cccc(CC(C)C)c3)cc12` (stereo not shown) [Compound I-142] are 5.00 to 6.00 and less than 5.52.
In the case of `NCCC(C(=O)Nc1ccc2[nH]nc(-c3cccc(Cl)c3)c2c1)c1ccccc1` (stereo not shown) [Compound I-241], the negative logarithm of the Ki (pKi) was 5.00 to 6.00 at AKT-3 and more than 6.00 on PDK-1.
The corresponding values for `NCCC(C(=O)Nc1cc(-c2ccccc2)c2[nH]ncc2c1)c1ccc(Cl)c(Cl)c1` (stereo not shown) [Compound I-150] are 5.00 to 6.00 and less than 5.52.
The corresponding values for `Cc1cccc(Nc2n[nH]c3ccc(NC(=O)C(CCN)c4ccc(Cl)c(Cl)c4)cc23)c1` (stereo not shown) [Compound I-212] are more than 6.00 and 5.52 to 6.00.
The corresponding values for `NCC(C(=O)Nc1ccc2[nH]ncc2c1)c1cccc(Cl)c1F` (stereo not shown) [Compound I-257] are more than 6.00 and less than 5.52.
Regarding `NCCC(C(=O)Nc1ccc2[nH]nc(-c3ccc(CCC(=O)O)cc3)c2c1)c1ccccc1` (stereo not shown) [Compound I-264], at PDK-1, the pKi is more than 6.00.
Still for that read-out and setting: the value for `COc1cccc(C(CCN)C(=O)Nc2ccc3[nH]nc(Nc4cccc(Cl)c4)c3c2)c1` (stereo not shown) [Compound I-1029] was less than 5.52; that for `NCCC(C(=O)Nc1ccc2[nH]ncc2c1)c1cccc(O)c1` (stereo not shown) [Compound I-1007] was 5.52 to 6.00.

Source of the values: patent US7041687B2, “Indazole compounds useful as protein kinase inhibitors” (Vertex Pharmaceuticals Incorporated, priority 2002, dated 2006).
